From patent US6914064B2, “1,4-Disubstituted piperazine derivatives useful as uro-selective α1-adrenoceptor blockers” (Ranbaxy Laboratories Limited, priority 2000, dated 2005)

How the values were obtained:
α1A adrenoceptor = target: T1, α1A adrenoceptor (Rattus norvegicus, UniProt P43140); test: Receptor binding assay, displacement of [3H]prazosin, rat submaxillary membranes; conditions: for Ki: [3H]prazosin displacement, rat submaxillary membranes, read-out: α1A (Rat submaxillary) Ki; for Selectivity α1B/α1A: ratio of Ki α1B (rat liver) / α1A (rat submaxillary)
T1 construct: from tissue; host or cells: rat submaxillary gland membranes
T1 sequence (P43140 1-466): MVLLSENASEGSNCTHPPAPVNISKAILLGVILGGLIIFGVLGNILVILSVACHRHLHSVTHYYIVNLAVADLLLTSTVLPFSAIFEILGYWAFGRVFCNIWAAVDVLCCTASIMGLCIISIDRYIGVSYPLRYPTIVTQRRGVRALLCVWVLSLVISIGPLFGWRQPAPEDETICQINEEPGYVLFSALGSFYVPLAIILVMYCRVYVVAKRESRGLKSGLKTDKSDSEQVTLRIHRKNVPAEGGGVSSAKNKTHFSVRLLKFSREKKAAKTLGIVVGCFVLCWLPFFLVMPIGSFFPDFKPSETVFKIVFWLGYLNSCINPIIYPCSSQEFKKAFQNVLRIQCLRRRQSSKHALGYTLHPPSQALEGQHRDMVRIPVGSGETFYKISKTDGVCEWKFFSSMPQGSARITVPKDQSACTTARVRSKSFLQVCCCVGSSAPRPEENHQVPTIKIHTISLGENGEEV
Procedure, shortened: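 Rat submaxillary gland membranes (150-250 μg protein) incubated 1 h at 24-25° C in Tris HCl 50 mM, EDTA 5 mM, pH 7.4. Non-specific binding set with 300 nM prazosin; filtration then counting of bound radioactivity. IC50 and Kd from non-linear curve fitting.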

[1] = target: T2, α1B adrenoceptor (spleen) (Rattus norvegicus, UniProt P15823); test: In vitro functional study, antagonism of phenylepinephrine-induced contraction of spleen; type: biochemical; conditions: tested compound at 0.1, 1 and 10 mM, read-out: α Adrenoceptor Subtype (pKB) α1B (converted)
T2 construct: Isolated tissues were mounted in organ bath containing Krebs Henseleit buffer; from tissue; host or cells: isolated spleen of male wistar rats
T2 sequence (P15823 1-515): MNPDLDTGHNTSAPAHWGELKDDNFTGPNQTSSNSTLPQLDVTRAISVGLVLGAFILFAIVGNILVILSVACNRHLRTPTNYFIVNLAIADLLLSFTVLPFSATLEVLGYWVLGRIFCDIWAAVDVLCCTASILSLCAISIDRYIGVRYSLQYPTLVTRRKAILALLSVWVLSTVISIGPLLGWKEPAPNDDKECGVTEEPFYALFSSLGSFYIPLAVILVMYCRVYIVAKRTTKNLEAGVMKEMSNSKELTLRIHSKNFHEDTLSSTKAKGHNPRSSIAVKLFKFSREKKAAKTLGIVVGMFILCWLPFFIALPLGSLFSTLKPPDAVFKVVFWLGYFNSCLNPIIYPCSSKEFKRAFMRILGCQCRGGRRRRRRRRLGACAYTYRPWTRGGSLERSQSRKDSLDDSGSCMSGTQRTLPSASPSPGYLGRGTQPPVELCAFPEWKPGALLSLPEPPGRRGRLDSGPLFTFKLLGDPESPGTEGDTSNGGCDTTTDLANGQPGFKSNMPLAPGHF
From the text: In order to study selectivity of action of these compounds towards different α-adrenoceptor subtypes, the ability of these compounds to antagonise α1-adrenoceptor agonist induced contractile response on aorta (α1Dprostate (α1A and spleen (α1B was studied. Aorta and spleen tissues were isolated from urethane anaesthetised (1.5 gm/kg) male wistar rats. Isolated tissues were mounted in organ bath containing Krebs Henseleit buffer of following composition (mM): NaCl 118; KCl 4.7; CaCl2 2.5; MgSO4. 7H2O 1.2; NaHCO3 25; KH2PO41.2; glucose 11.5. Buffer was maintained at 37° C. and aereated with a mixture of 95% O2 and 5% CO2. A resting tension of 2 g (aorta) or 1 g (spleen and prostate)was applied to tissues. Contractile response was monitored using a force displacement transducer and recorded on chart recorders. Tissues were allowed to equilibrate for 2 hours. At the end of equilibration period, concentration response curves to norepinephrine (aorta) and phenylepinephrine (spleen and prostate) were obtained in absence and presence of tested compound (at concentration of 0.1,1 and 10 mM). Antagonist affinity was calculated and expressed as pKB vales in Table II.

α1B adrenoceptor = target: T3, α1B adrenoceptor (Rattus norvegicus, UniProt P15823); test: Receptor binding assay, displacement of [3H]prazosin, rat liver membranes; conditions: [3H]prazosin displacement, rat liver membranes; read-out: α1B (Rat liver) Ki
T3 construct: from tissue; host or cells: rat liver membranes
T3 sequence (P15823 1-515): T2 sequence (P15823 1-515)
Procedure, shortened: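 Rat liver membranes (150-250 μg protein) incubated with [3H]prazosin in 50 mM Tris HCl, 5 mM EDTA, pH 7.4, 1 h at 24-25° C; nonspecific binding with 300 nM prazosin. Bound radioactivity counted after filtration; IC50 by nonlinear fit, Ki via Cheng-Prusoff.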

In the case of CCCOc1ccccc1N1CCN(CCCN2C(=O)C3CC=CCC3C2=O)CC1.Cl (centres unmarked) [Compound 24, 2-[3-{4-(2-Propoxyphenyl)piperazin-1-yl}propyl]-3a,4,7,7a-tetrahydro-1H-isoindole-1,3(2H)-dione hydrochloride], the melting point is reported as 193 to 194 °C, the Ki (α1A adrenoceptor) is reported as 0.24 nM and the “Selectivity α1B/α1A” value (α1A adrenoceptor) is reported as 117. The Kb [1] was 14.1 nM and the Ki (α1B adrenoceptor) was 28 nM.

For CCOc1ccccc1N1CCN(CCCN2C(=O)C3CC=CCC3C2=O)CC1.Cl (centres unmarked) [Compound 11, 2-[3-{4-(2-Ethoxyphenyl)piperazin-1-yl}propyl]-3a,4,7,7a-tetrahydro-1H-isoindole-1,3(2H)-dione hydrochloride], the melting point was 221.9 to 222.7 °C, the Ki (α1A adrenoceptor) was 0.13 nM and the “Selectivity α1B/α1A” value (α1A adrenoceptor) was 146. The Kb [1] was 5.25 nM and the Ki (α1B adrenoceptor) was 19 nM.

In the case of CC(C)Oc1ccccc1N1CCN(CCCN2C(=O)C3CC=CCC3C2=O)CC1.Cl (centres unmarked) [Compound 23, 2-[3-{4-(2-Isopropoxyphenyl)piperazin-1-yl}propyl]-3a,4,7,7a-tetrahydro-1H-isoindole-1,3(2H)-dione hydrochloride], the melting point is reported as 223 to 224 °C, the Ki (α1A adrenoceptor) is reported as 0.16 nM and the “Selectivity α1B/α1A” value (α1A adrenoceptor) is reported as 175. It also gave a Kb [1] of 19.5 nM and a Ki (α1B adrenoceptor) of 28 nM.

With COc1ccccc1N1CCN(CCCN2C(=O)C3CC=CCC3C2=O)CC1.Cl (centres unmarked) [Compound 01, 2-[3-{4-(2-Methoxyphenyl)piperazin-1-yl}propyl]-3a,4,7,7a-tetrahydro-1H-isoindole-1,3(2H)-dione hydrochloride] the melting point was 184 to 185 °C, the Ki (α1A adrenoceptor) was 0.8 nM and the “Selectivity α1B/α1A” value (α1A adrenoceptor) was 91. It also gave a Kb [1] of 21.9 nM and a Ki (α1B adrenoceptor) of 73 nM.
